According to paper PMC5218480 (PLoS ONE, 2017):

Test system: MV-4-11 cells
Assay: Gene expression microarray analysis (Affymetrix PrimeView) and GSEA
Format: cell-based, human
Design: RFU PODN (11730768_x_at) / Fold change /veh PODN (11730768_x_at) / RFU LINC00158 (11744669_a_at) / Fold change /veh LINC00158 (11744669_a_at) / RFU DUSP10 (11751237_a_at) / Fold change /veh DUSP10 (11751237_a_at) / RFU ID3 (11757404_x_at) / Fold change /veh ID3 (11757404_x_at) / RFU PLEKHG5 (11737974_s_at) / Fold change /veh PLEKHG5 (11737974_s_at) / RFU LRRC4B (11730491_at) / Fold change /veh LRRC4B (11730491_at) / RFU GIMAP4 (11747438_a_at) / Fold change /veh GIMAP4 (11747438_a_at) / RFU KRT8 (11758183_x_at) / Fold change /veh KRT8 (11758183_x_at) / RFU CNN1 (11734310_a_at) / Fold change /veh CNN1 (11734310_a_at) / RFU VPS37D (11726825_at) / Fold change /veh VPS37D (11726825_at) / RFU C10orf10 (11716522_x_at) / Fold change /veh C10orf10 (11716522_x_at) / RFU KIR2DL2 /// KIR2DL4 /// KIR2DL5A /// KIR2DL5B /// KIR2DS1 /// KIR2DS2 /// KIR2DS3 /// KIR2DS4 /// KIR3DL3 /// KIR3DL3 /// KIR3DS1 (11738374_at) / Fold change /veh KIR2DL2 /// KIR2DL4 /// KIR2DL5A /// KIR2DL5B /// KIR2DS1 /// KIR2DS2 /// KIR2DS3 /// KIR2DS4 /// KIR3DL3 /// KIR3DL3 /// KIR3DS1 (11738374_at) / RFU C1QL1 (11718748_at) / Fold change /veh C1QL1 (11718748_at) / RFU TMPRSS4 (11747572_a_at) / Fold change /veh TMPRSS4 (11747572_a_at) / RFU HAMP (11756126_x_at) / Fold change /veh HAMP (11756126_x_at) / RFU RNFT2 (11725882_a_at) / Fold change /veh RNFT2 (11725882_a_at) / RFU NR4A2 (11747474_a_at) / Fold change /veh NR4A2 (11747474_a_at) / RFU ABCC12 (11746883_a_at) / Fold change /veh ABCC12 (11746883_a_at) / RFU TMEM136 (11760407_x_at) / Fold change /veh TMEM136 (11760407_x_at) / RFU CLDN22 /// WWC2 (11732394_at) / Fold change /veh CLDN22 /// WWC2 (11732394_at) / RFU HLA-DPB1 (11760878_x_at) / Fold change /veh HLA-DPB1 (11760878_x_at) / RFU SPINT1 (11716480_a_at) / Fold change /veh SPINT1 (11716480_a_at) / RFU GAP43 (11754022_s_at) / Fold change /veh GAP43 (11754022_s_at) / RFU A4GNT (11735810_at) / Fold change /veh A4GNT (11735810_at) / RFU PRB3 (11715151_x_at) / Fold change /veh PRB3 (11715151_x_at) / RFU TUBB4B (11761932_at) / Fold change /veh TUBB4B (11761932_at) / RFU CAPN14 (11732068_a_at) / Fold change /veh CAPN14 (11732068_a_at) / RFU TMCC2 (11721928_a_at) / Fold change /veh TMCC2 (11721928_a_at) / RFU IRGQ (11745062_a_at) / Fold change /veh IRGQ (11745062_a_at) / RFU FAM174B (11720279_a_at) / Fold change /veh FAM174B (11720279_a_at) / RFU TMPRSS4 (11748680_a_at) / Fold change /veh TMPRSS4 (11748680_a_at) / RFU FAM212B (11763350_a_at) / Fold change /veh FAM212B (11763350_a_at) / RFU PLEKHG5 (11743358_a_at) / Fold change /veh PLEKHG5 (11743358_a_at) / RFU ZSCAN30 (11745921_a_at) / Fold change /veh ZSCAN30 (11745921_a_at) / RFU CMKLR1 (11741424_a_at) / Fold change /veh CMKLR1 (11741424_a_at) / RFU LOC101060620 /// MAPK8IP1 (11723275_at) / Fold change /veh LOC101060620 /// MAPK8IP1 (11723275_at) / RFU SPTSSB (11747773_x_at) / Fold change /veh SPTSSB (11747773_x_at) / RFU PRSS12 (11739890_at) / Fold change /veh PRSS12 (11739890_at) / RFU BIN1 (11741810_x_at) / Fold change /veh BIN1 (11741810_x_at) / RFU WNT11 (11732464_a_at) / Fold change /veh WNT11 (11732464_a_at) / RFU C10orf10 (11716521_a_at) / Fold change /veh C10orf10 (11716521_a_at) / RFU C5orf56 (11738089_at) / Fold change /veh C5orf56 (11738089_at) / RFU CYB561 (11721691_x_at) / Fold change /veh CYB561 (11721691_x_at) / RFU ANKRD19P (11752326_a_at) / Fold change /veh ANKRD19P (11752326_a_at) / RFU OR2T12 /// OR2T33 /// OR2T8 (11738714_s_at) / Fold change /veh OR2T12 /// OR2T33 /// OR2T8 (11738714_s_at) / RFU VCAN (11748164_a_at) / Fold change /veh VCAN (11748164_a_at) / RFU JSRP1 (11732532_at) / Fold change /veh JSRP1 (11732532_at) / RFU KRTAP10-11 (11738290_x_at) / Fold change /veh KRTAP10-11 (11738290_x_at) / RFU MYO3A (11730013_a_at) / Fold change /veh MYO3A (11730013_a_at) / RFU EBF3 (11725865_a_at) / Fold change /veh EBF3 (11725865_a_at) / RFU CAMK2N1 (11719241_x_at) / Fold change /veh CAMK2N1 (11719241_x_at) / RFU C5orf56 (11738088_a_at) / Fold change /veh C5orf56 (11738088_a_at) / RFU OLFML3 (11715873_a_at) / Fold change /veh OLFML3 (11715873_a_at) / RFU LOC100653217 /// NTM (11731650_a_at) / Fold change /veh LOC100653217 /// NTM (11731650_a_at) / RFU MAPK11 (11762145_a_at) / Fold change /veh MAPK11 (11762145_a_at) / RFU FIZ1 (11724087_x_at) / Fold change /veh FIZ1 (11724087_x_at) / RFU OASL (11726364_x_at) / Fold change /veh OASL (11726364_x_at) / RFU SOX15 (11748057_x_at) / Fold change /veh SOX15 (11748057_x_at) / RFU CD79A (11719716_a_at) / Fold change /veh CD79A (11719716_a_at) / RFU HIST1H1D (11736915_at) / Fold change /veh HIST1H1D (11736915_at) / RFU CASKIN2 (11723855_a_at) / Fold change /veh CASKIN2 (11723855_a_at) / RFU LOC730098 (11760151_x_at) / Fold change /veh LOC730098 (11760151_x_at) / RFU OR4N2 (11742367_at) / Fold change /veh OR4N2 (11742367_at) / RFU PRRT2 (11749266_a_at) / Fold change /veh PRRT2 (11749266_a_at) / RFU SNX32 (11753110_a_at) / Fold change /veh SNX32 (11753110_a_at) / RFU CDHR5 (11726645_a_at) / Fold change /veh CDHR5 (11726645_a_at) / RFU RCAN1 (11760418_a_at) / Fold change /veh RCAN1 (11760418_a_at) / RFU FAM167A (11723789_a_at) / Fold change /veh FAM167A (11723789_a_at) / RFU FAM26E (11764081_at) / Fold change /veh FAM26E (11764081_at) / RFU ISYNA1 (11749810_s_at) / Fold change /veh ISYNA1 (11749810_s_at) / RFU ACY1 (11761880_at) / Fold change /veh ACY1 (11761880_at) / RFU 11764098_at / Fold change /veh 11764098_at / RFU SAMD14 (11745864_x_at) / Fold change /veh SAMD14 (11745864_x_at) / RFU NPB (11741838_a_at) / Fold change /veh NPB (11741838_a_at) / RFU TMPRSS6 (11731388_a_at) / Fold change /veh TMPRSS6 (11731388_a_at) / RFU KRTAP10-2 (11738614_at) / Fold change /veh KRTAP10-2 (11738614_at) / RFU ARHGAP8 /// PRR5-ARHGAP8 (11727945_x_at) / Fold change /veh ARHGAP8 /// PRR5-ARHGAP8 (11727945_x_at) / RFU KRTAP5-7 /// NADSYN1 (11734609_at) / Fold change /veh KRTAP5-7 /// NADSYN1 (11734609_at) / RFU RASL12 (11751679_a_at) / Fold change /veh RASL12 (11751679_a_at) / RFU CDKN2B (11736163_a_at) / Fold change /veh CDKN2B (11736163_a_at) / RFU PRF1 (11729649_at) / Fold change /veh PRF1 (11729649_at) / RFU, ZNF638 /// ZNF638-IT1 / Fold change vs veh, ZNF638 /// ZNF638-IT1 / RFU, PANK3 / Fold change vs veh, PANK3 / RFU, SH3YL1 / Fold change vs veh, SH3YL1 / RFU, ZEB2 / Fold change vs veh, ZEB2 / RFU, NRIP1 / Fold change vs veh, NRIP1 / RFU, PTTG1IP / Fold change vs veh, PTTG1IP / RFU, CAPN2 / Fold change vs veh, CAPN2 / RFU, MED14 / Fold change vs veh, MED14 / RFU, SNORA58 / Fold change vs veh, SNORA58 / RFU, C1orf63 / Fold change vs veh, C1orf63 / RFU, LRRFIP1 / Fold change vs veh, LRRFIP1 / RFU, NDUFAF7 / Fold change vs veh, NDUFAF7 / RFU, SLC12A2 / Fold change vs veh, SLC12A2 / RFU, IBTK / Fold change vs veh, IBTK / RFU, ESF1 / Fold change vs veh, ESF1 / Fold change vs veh, TMEM50B / RFU, TAOK1 / Fold change vs veh, TAOK1 / RFU, ACBD3 / Fold change vs veh, ACBD3 / RFU, TMA16 / Fold change vs veh, TMA16 / RFU, RWDD3 / Fold change vs veh, RWDD3 / RFU, BCAT1 / Fold change vs veh, BCAT1 / RFU, EDEM3 / Fold change vs veh, EDEM3 / RFU, TMEM33 / Fold change vs veh, TMEM33 / RFU, WDR75 / Fold change vs veh, WDR75 / RFU, AHCTF1 / Fold change vs veh, AHCTF1 / RFU, TFRC / Fold change vs veh, TFRC / RFU, ZDHHC17 / Fold change vs veh, ZDHHC17 / RFU, NOM1 / Fold change vs veh, NOM1 / RFU, ARL8B / Fold change vs veh, ARL8B / RFU, ZBTB11 / Fold change vs veh, ZBTB11 / RFU, TAMM41 / Fold change vs veh, TAMM41 / RFU, KIAA1704 /// LOC100996395 / Fold change vs veh, KIAA1704 /// LOC100996395 / RFU, ING1 / Fold change vs veh, ING1 / RFU, TRMT61B / Fold change vs veh, TRMT61B / RFU, FUBP3 / Fold change vs veh, FUBP3 / RFU, TP53 / Fold change vs veh, TP53 / RFU, TNKS2 / Fold change vs veh, TNKS2 / RFU, ZFP14 / Fold change vs veh, ZFP14 / RFU, ACTR2 / Fold change vs veh, ACTR2 / RFU, PPP3R1 / Fold change vs veh, PPP3R1 / RFU, PIK3R1 / Fold change vs veh, PIK3R1 / RFU, HNRNPA1 / Fold change vs veh, HNRNPA1 / RFU, RNF170 / Fold change vs veh, RNF170 / RFU, ZNF28 / Fold change vs veh, ZNF28 / RFU, RNGTT / Fold change vs veh, RNGTT / RFU, OGT / Fold change vs veh, OGT / RFU, BRD1 / Fold change vs veh, BRD1 / RFU, MARS / Fold change vs veh, MARS / RFU, ZNF655 / Fold change vs veh, ZNF655 / RFU, FAHD1 / Fold change vs veh, FAHD1 / RFU, BDP1 / Fold change vs veh, BDP1 / RFU, LRRCC1 / Fold change vs veh, LRRCC1 / RFU, ARID1A / Fold change vs veh, ARID1A / RFU, ZNF146 / Fold change vs veh, ZNF146 / RFU, ZNF330 / Fold change vs veh, ZNF330 / RFU, GPN3 / Fold change vs veh, GPN3 / RFU, C9orf123 / Fold change vs veh, C9orf123 / RFU, N4BP2L2 / Fold change vs veh, N4BP2L2 / RFU, ARFIP1 / Fold change vs veh, ARFIP1 / RFU, FAM179B / Fold change vs veh, FAM179B / RFU, BCL10 / Fold change vs veh, BCL10 / RFU, UHRF1BP1L / Fold change vs veh, UHRF1BP1L / RFU, BET1 / Fold change vs veh, BET1 / RFU, CNOT2 / Fold change vs veh, CNOT2 / RFU, ZNF268 / Fold change vs veh, ZNF268 / Fold change vs veh, ZNF507 / RFU, DGCR2 / Fold change vs veh, DGCR2 / RFU, WDSUB1 / Fold change vs veh, WDSUB1 / Fold change vs veh, HSP90B1 /// MIR3652 / RFU, ADSS / Fold change vs veh, ADSS / RFU, GK / Fold change vs veh, GK / RFU, ZNF148 / Fold change vs veh, ZNF148 / RFU, TAF9 / Fold change vs veh, TAF9 / RFU, SLC1A5 / Fold change vs veh, SLC1A5 / RFU, SLMO2 / Fold change vs veh, SLMO2 / RFU, ABCC4 / Fold change vs veh, ABCC4 / RFU, LOC101060439 /// RAP1B / Fold change vs veh, LOC101060439 /// RAP1B / RFU, RFX7 / Fold change vs veh, RFX7 / RFU, GTPBP10 / Fold change vs veh, GTPBP10 / RFU, CNEP1R1 / Fold change vs veh, CNEP1R1 / RFU, BIVM-ERCC5 /// ERCC5 / Fold change vs veh, BIVM-ERCC5 /// ERCC5 / RFU, ILF3 / Fold change vs veh, ILF3 / RFU 11762660_at / Fold change /veh 11762660_at / RFU VCAN (11757783_s_at) / Fold change /veh VCAN (11757783_s_at) / RFU DDX43 (11728927_at) / Fold change /veh DDX43 (11728927_at) / RFU KRT8 (11758188_x_at) / Fold change /veh KRT8 (11758188_x_at) / RFU NKD1 (11759106_at) / Fold change /veh NKD1 (11759106_at) / RFU SRD5A1 (11742802_a_at) / Fold change /veh SRD5A1 (11742802_a_at) / RFU TPSAB1 /// TPSB2 (11721975_s_at) / Fold change /veh TPSAB1 /// TPSB2 (11721975_s_at) / RFU GSTM3 (11746129_a_at) / Fold change /veh GSTM3 (11746129_a_at) / RFU IL23R (11737362_x_at) / Fold change /veh IL23R (11737362_x_at) / RFU TMEM51 (11727254_a_at) / Fold change /veh TMEM51 (11727254_a_at) / RFU PIWIL2 (11732686_x_at) / Fold change /veh PIWIL2 (11732686_x_at) / RFU ORM1 (11744905_x_at) / Fold change /veh ORM1 (11744905_x_at) / RFU CCDC152 (11743942_at) / Fold change /veh CCDC152 (11743942_at) / RFU ECM1 (11717891_a_at) / Fold change /veh ECM1 (11717891_a_at) / RFU IL23R (11748794_a_at) / Fold change /veh IL23R (11748794_a_at) / RFU TNFAIP8L3 (11732012_x_at) / Fold change /veh TNFAIP8L3 (11732012_x_at) / RFU MBOAT4 (11741988_at) / Fold change /veh MBOAT4 (11741988_at) / RFU 11764193_at / Fold change /veh 11764193_at / RFU TMEM53 (11763286_at) / Fold change /veh TMEM53 (11763286_at) / RFU MAGEB2 (11727129_at) / Fold change /veh MAGEB2 (11727129_at) / RFU TMEM200A (11744735_a_at) / Fold change /veh TMEM200A (11744735_a_at) / RFU CCDC152 (11751479_a_at) / Fold change /veh CCDC152 (11751479_a_at) / RFU FAM211A (11726209_a_at) / Fold change /veh FAM211A (11726209_a_at) / RFU RGS16 (11746705_a_at) / Fold change /veh RGS16 (11746705_a_at) / RFU VCAN (11755009_s_at) / Fold change /veh VCAN (11755009_s_at) / RFU RHOB (11743442_s_at) / Fold change /veh RHOB (11743442_s_at) / RFU RGS16 (11720943_a_at) / Fold change /veh RGS16 (11720943_a_at) / RFU RGS16 (11720944_at) / Fold change /veh RGS16 (11720944_at) / RFU, VPS4B / Fold change vs veh, VPS4B / RFU, CREB1 / Fold change vs veh, CREB1 / RFU, DNAJC13 / Fold change vs veh, DNAJC13 / RFU, GNAQ / Fold change vs veh, GNAQ / RFU, CDK5R1 / Fold change vs veh, CDK5R1 / RFU, ZRANB3 / Fold change vs veh, ZRANB3 / RFU, CUL4A / Fold change vs veh, CUL4A / RFU, CCNY / Fold change vs veh, CCNY / RFU, UFL1 / Fold change vs veh, UFL1 / RFU, COG3 / Fold change vs veh, COG3 / RFU, DIAPH2 / Fold change vs veh, DIAPH2 / RFU, SKA2 / Fold change vs veh, SKA2 / RFU, AFF3 / Fold change vs veh, AFF3 / RFU, LMF1 / Fold change vs veh, LMF1 / RFU, IPO11 / Fold change vs veh, IPO11 / RFU, DFFB / Fold change vs veh, DFFB / RFU, FOXP1 / Fold change vs veh, FOXP1 / RFU, CARD8 / Fold change vs veh, CARD8 / RFU, STRN3 / Fold change vs veh, STRN3 / RFU, ADK / Fold change vs veh, ADK / RFU, RASSF2 / Fold change vs veh, RASSF2 / RFU, WIPF1 / Fold change vs veh, WIPF1 / RFU, LARP1B / Fold change vs veh, LARP1B / RFU, RASA1 / Fold change vs veh, RASA1 / RFU, RB1 / Fold change vs veh, RB1 / RFU, PPFIA1 / Fold change vs veh, PPFIA1 / RFU, MAT2A / Fold change vs veh, MAT2A / RFU, CCT5 / Fold change vs veh, CCT5 / RFU, WDR92 / Fold change vs veh, WDR92 / RFU, CUX1 / Fold change vs veh, CUX1 / RFU, TTC7A / Fold change vs veh, TTC7A / RFU, TMEM135 / Fold change vs veh, TMEM135 / RFU, DEPTOR / Fold change vs veh, DEPTOR / RFU, CPM / Fold change vs veh, CPM / RFU, DNAJB6 / Fold change vs veh, DNAJB6 / RFU, CACNA2D3 / Fold change vs veh, CACNA2D3 / RFU, DTX4 / Fold change vs veh, DTX4 / RFU, TFCP2 / Fold change vs veh, TFCP2 / RFU, GMCL1 /// GMCL1P1 / Fold change vs veh, GMCL1 /// GMCL1P1 / RFU, AEBP2 / Fold change vs veh, AEBP2 / RFU, SNHG1 /// SNORD22 /// SNORD25 /// SNORD26 /// SNORD27 /// SNORD28 /// SNORD29 /// SNORD31 / Fold change vs veh, SNHG1 /// SNORD22 /// SNORD25 /// SNORD26 /// SNORD27 /// SNORD28 /// SNORD29 /// SNORD31 / Fold change (Aza/veh), C12orf56 (ProbeSet 11735607_a_at) / Fold change (ACY-1035/veh), C12orf56 (ProbeSet 11735607_a_at) / Fold change (Aza/veh), FGFR1OP (ProbeSet 11751329_s_at) / Fold change (ACY-1035/veh), FGFR1OP (ProbeSet 11751329_s_at) / Fold change (Aza/veh), VPS36 (ProbeSet 11739960_a_at) / Fold change (ACY-1035/veh), VPS36 (ProbeSet 11739960_a_at) / RFU SYPL1 (11715823_x_at) / Fold change /veh SYPL1 (11715823_x_at) / RFU IGFBP7 (11715501_s_at) / Fold change /veh IGFBP7 (11715501_s_at) / RFU REEP3 (11722064_at) / Fold change /veh REEP3 (11722064_at) / RFU IGLL1 (11728026_x_at) / Fold change /veh IGLL1 (11728026_x_at): dose or concentration left out as unconfirmed
Conditions: ProbeSet 11743580_s_at; LIST B

Structure (SMILES): Nc1ncn([C@@H]2O[C@H](CO)[C@@H](O)[C@H]2O)c(=O)n1 [azacitidine]
- Fold change vs veh, ACTR2: 0.91
